Source: US4895841A (priority 1987, dated 1990)
Structures can show the parent of a compound that is named as a salt. Where two headings read alike, the source gives them in different places.

Experiments:
[1] = system: passive avoidance learning impairment induced by scopolamine; assay: Action on passive avoidance learning impairment induced by scopolamine; assay type: in vivo, Male Wistar rats; conditions: scopolamine 0.5 mg/kg i.p.
Experimental: Action on passive avoidance learning impairment induced by scopolamine
See Z. Bokolanecky & Jarvik: Int. J. Neuropharmacol, 6, 217-222(1967).
Male Wistar rats were used as the test animal and a step-through light and dark box was used as an apparatus. A sample to detect was orally administered one hour before the training and the rats were treated with 0.5 mg/kg (i.p.) of scopolamine 30 min. before the training. In a training experiment, the animal was placed into a light room and, just after the animal had entered into a dark room, a guillotine door was closed, followed by delivery of an electric shock from the gid of the floor. After six hours, the animal was again placed into a light room for a retention experiment, and the time taken for the animal to enter the dark room was measured for evaluation of the effect of the sample.
The difference in the response time between the physiological saline administration group and the scopolamine administration group was taken as 100%, and the effect of the sample was expressed in terms of the percentage antagonism by the sample (Reverse %).
The number of animals per dose was 10 to 17.

[2] = Toxicity tests on rats; conditions: rat, in vivo, no serious toxicity
[3] = molecular target: T1, acetylcholinesterase (Mus musculus, UniProt P21836); assay: biochemical; assay type: biochemical
T1 construct: A mouse brain homogenate was used as an acetylcholinesterase source; from tissue; host or cells: mouse brain homogenate

[4] = system: acetylcholinesterase; assay: Ex vivo acetylcholinesterase inhibitory action in rat cerebral hemispheres after oral administration; conditions: 1 h after administration, vs saline control
Description: A sample to detect was orally administered to rats. After one hour of the administration, the cerebral hemispheres were dissected and homogenized, followed by the determination of the acetylcholinesterase activity. The group of rats treated with physiological saline was used as the control. Inhibition of AChE by samples ex vivo was expressed in terms of inhibition percent of the control value.

[5] = 1.0 mg/kg oral 1 h before training
[6] = read-out: AChE inhibitory activity IC50
[7] = 0.5 mg/kg oral 1 h before training
[8] = 0.25 mg/kg oral 1 h before training

T1 sequence (P21836 32-614): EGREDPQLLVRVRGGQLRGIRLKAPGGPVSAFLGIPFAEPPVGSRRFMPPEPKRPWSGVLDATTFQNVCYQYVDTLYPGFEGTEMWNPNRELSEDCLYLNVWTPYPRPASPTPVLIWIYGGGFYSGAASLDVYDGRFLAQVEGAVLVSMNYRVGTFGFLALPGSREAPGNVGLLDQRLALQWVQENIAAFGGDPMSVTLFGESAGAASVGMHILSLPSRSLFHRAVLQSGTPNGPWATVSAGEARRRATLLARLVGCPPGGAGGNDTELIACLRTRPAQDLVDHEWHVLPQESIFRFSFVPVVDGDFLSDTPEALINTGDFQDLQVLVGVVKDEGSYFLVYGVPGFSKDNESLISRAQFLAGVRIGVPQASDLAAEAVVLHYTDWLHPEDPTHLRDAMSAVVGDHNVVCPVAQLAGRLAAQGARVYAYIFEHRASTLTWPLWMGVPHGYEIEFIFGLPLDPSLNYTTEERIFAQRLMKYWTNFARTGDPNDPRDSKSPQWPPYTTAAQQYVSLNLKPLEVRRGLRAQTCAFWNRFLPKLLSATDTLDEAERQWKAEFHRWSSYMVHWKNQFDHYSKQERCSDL

Structure (SMILES) | Reverse % (percentage antagonism of scopolamine effect) [1, 5] | LD50 [2] | IC50 [3, 6] | Reverse % (percentage antagonism of scopolamine effect) [1, 7] | IC50 [3] | further results
O=C(NCCC1CCN(Cc2ccccc2)CC1)c1cnc2ccccc2n1 [Example 15, N-[4'-(1'-Benzylpiperidyl)ethyl]-2-quinoxalinecarboxylic amide] | 51% | ≥ 100 mg/kg | 0.094 µM |  |  | Reverse % (percentage antagonism of scopolamine effect) ([1]; 2.0 mg/kg oral 1 h before training): 30%; AChE inhibitory action (%) ([4]; 10 mg/kg oral): 5%; AChE inhibitory action (%) ([4]; 30 mg/kg oral): 14%; AChE inhibitory action (%) ([4]; 100 mg/kg oral): 18%
O=C(c1ccncc1)N(CCC1CCN(Cc2ccccc2)CC1)c1ccccc1 [Example 19, dihydrochloride] | 39% | ≥ 100 mg/kg | 0.064 µM | 37% |  | 
COc1cc2c(cc1OC)C(=O)C(CC1CCN(Cc3ccccc3)CC1)C2 (stereo not shown) [Example 4, 1-Benzyl-4-[(5,6-dimethoxy-1-indanon)-2-yl]-methylpiperidine hydrochloride] |  |  |  |  |  | Reverse % (percentage antagonism of scopolamine effect) ([1]; 0.125 mg/kg oral 1 h before training): 55%; Reverse % (percentage antagonism of scopolamine effect) [1, 8]: 36%
CCN1CC(=O)N(CCC2CCN(Cc3ccccc3)CC2)c2ccccc2C1 [Example 69] | 38% | ≥ 100 mg/kg |  | 22% |  | 
O=C(CCC1CCN(Cc2ccccc2)CC1)Nc1ccccc1 [Example 20, 4-(1-Benzylpiperidine)propanailide hydrochloride] |  |  | 0.54 µM |  |  | 
O=C1c2cc(F)ccc2CC1CC1CCN(Cc2ccccc2)CC1 (stereo not shown) [Example 193] |  |  |  |  | 0.2 µM | 
COc1cc2c(cc1OC)C(=O)C(CC1CCN(Cc3ccc(O)cc3)CC1)C2 (stereo not shown) [Example 234] |  |  |  |  | 0.0018 µM | 
O=C1c2ccccc2CCN1CCC1CCN(Cc2ccccc2)CC1 [Example 54] |  |  | 1 µM |  |  | 
O=C(c1cnccn1)N(CCC1CCN(Cc2ccccc2)CC1)c1ccccc1 [Example 95] |  |  |  |  | 0.085 µM | 
CC(C)OC(=O)c1nccnc1C(=O)NCCC1CCN(Cc2ccccc2)CC1 [Example 13] |  | ≥ 100 mg/kg |  | 27% | 0.026 µM | Reverse % (percentage antagonism of scopolamine effect) [1, 8]: 39%
